In patent publication US10393633B2, “Sample fixation and stabilisation” (RNASSIST LTD., priority 2013, dated 2019):
Read-outs that look alike come from different tables or passages of the source.

What was measured:
[1] = Solid or liquid state of the mixtures at 24° C. / 100° C.; format: physicochemical; settings: for Room temperature (24° C.) DES liquid on mixing with Choline chloride: 1:2 mol:mol proportion
RNA in rat tissue = assay: RNA stabilisation in animal tissue by DES mixtures, 37° C. 18 hours, RNA yield and gel RNA quality (Example 3, Tables 1 and 2)
RNA of guanidine lysate = assay: RNA yields from Guanidine/Choline chloride:Trifluoroacetamide mixtures in the absence of ethanol for binding (Example 30, Table 11); set-up: species or system mouse; settings: no ethanol
[2] = Table 1, solid or liquid at room temperature
[3] = 0 highly degraded to 10 highest quality, 18S/28S rRNA on agarose gel, 37° C. 18 hours

SMILES | Room temperature (24° C.) DES liquid on mixing with Choline chloride [1] | other results
CN1CCN(C)C1=O [1,3-Dimethyl-2-imidazolidone] | could not be prepared | 
c1ccc(Cn2ccnc2)cc1 [1-Benzylimidazole] | could not be prepared | 
CCN1CCCC1=O [1-Ethyl-2-pyrrol] | could not be prepared | 
O=CN1CCOCC1 [4-Formyl morpholine] | could not be prepared | 
CC(=O)CCC(C)=O [Acetonyl acetone] | could not be prepared | 
N.N.N.O=P(O)(O)O [Ammonium phosphate] |  | Formation of room temperature DES liquids by ammonium salts [1]: not capable of forming room temperature DES liquids
C[N+](C)(C)CC(=O)O [Betaine:Water (Sat'd), Betaine, reference compound] |  | Liquid at 24° C. [1, 2]: Yes; RNA Quality 0-10 (RNA in rat tissue; [3]): 0
C[N+](C)(C)CCO.[Cl-] [Choline chloride:Water (6M), Choline chloride, reference compound] |  | Liquid at 24° C. [1]: Saturated; RNA Quality 0-10 (RNA in rat tissue): 3
NC(=O)C(F)(F)F [Trifluoroacetamide] |  | RNA yield compared with Choline chloride:Trifluoroacetamide dissolved in Buffer RLT (1:1 wt:wt) (RNA of guanidine lysate): 15%
NC(N)=O [Water:Urea (5M), Urea, reference compound] |  | Liquid at 24° C. [1, 2]: Saturated; RNA Quality 0-10 (RNA in rat tissue; [3]): 0

More lines, main results first:

Room temperature (24° C.) DES liquid on mixing with Choline chloride [1] | SMILES | other results
could not be prepared | O=C1OCCO1 [Ethylene carbonate] | 
could not be prepared | CCn1ccnc1 [N-Ethylimidazole] | 
could not be prepared | NC(=O)C(N)=O [Oxamide] | 
could not be prepared | CC(C)(C)C(N)=O [Pivalamide] | 
could not be prepared | O=C(O)[C@@H]1CCCN1 [Proline] | 
